For 8 compounds, TGI results are on record in PubChem BioAssay (NCI).

Some test systems named below: 786-0 renal; A498 renal; A549 NSCLC; CAKI-1 renal; CCRF-CEM leukemia; COLO 205 colon; DU-145 prostate; EKVX NSCLC; HCC-2998 colon; HCT-15 colon; HL-60(TB) leukemia; MDA-N; NCI-H460 lung; SF-539 CNS; SK-MEL-5 melanoma; SK-OV-3 ovarian; TK-10 renal.
Holding throughout (experiment): DTP human tumour cell line panel, 48 h

SMILES strings stand for the structures.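 These data come from cells grown in 96-well plates and exposed to compound for 48 hours at five concentrations. At the TGI there is no net growth.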 Some results are limits rather than exact numbers.

The TGI is the concentration at which net growth stops. Low values mean more potent growth arrest, high ones less potent growth arrest. Consider `CN(C)CCCNC(=O)c1cc(NS(=O)(=O)c2ccc3c(c2)C(=O)c2ccccc2C3=O)cn1C`, for which the TGI in the assay with 786-0 renal was 77.3 µM; with A498 renal, 42.6 µM; in the assay on A549 NSCLC, above 100 µM; in the assay with CAKI-1 renal, above 100 µM; in the assay with CCRF-CEM leukemia it was above 100 µM; in the assay on COLO 205 colon, above 100 µM. Also, the TGI in the assay with DU-145 prostate is 76.3 µM; in the assay with EKVX NSCLC, above 100 µM; in the assay on HCC-2998 colon, 57.3 µM; with HCT-15 colon it was above 100 µM; with HL-60(TB) leukemia, 62.3 µM; with MDA-N, 60 µM. Further, the TGI in the assay with NCI-H460 lung was 54.9 µM; in the assay with SF-539 CNS, 75.6 µM; in the assay with SK-MEL-5 melanoma it was 37.4 µM; in the assay with SK-OV-3 ovarian it was above 100 µM; with TK-10 renal it was 51.3 µM.
For the compound `COc1cc2cc3c4c(cc(OC)c(OC)c4c2cc1OC)CCN3C`, the TGI with 786-0 renal was above 50 µM; with A498 renal it was above 38.1 µM; in the assay on A549 NSCLC, above 50 µM; in the assay with CAKI-1 renal it was 25.7 µM; with CCRF-CEM leukemia it was 7.27 µM; in the assay on COLO 205 colon, 39.6 µM. The TGI in the assay with DU-145 prostate was 19.8 µM; in the assay with EKVX NSCLC, above 50 µM; in the assay on HCC-2998 colon it was 33.1 µM; in the assay with HCT-15 colon, above 47.8 µM; in the assay on HL-60(TB) leukemia it was 18.7 µM; in the assay on MDA-N, above 50 µM. Besides, the TGI in the assay on NCI-H460 lung was above 27.3 µM; with SF-539 CNS it was 40.5 µM; in the assay on SK-MEL-5 melanoma, 16.6 µM; in the assay with SK-OV-3 ovarian, above 50 µM; in the assay on TK-10 renal it was above 23.4 µM.
Turning to `CCOC(=O)C1C(c2ccc(OC)cc2)c2c([nH][nH]c2=O)CC1(C)O` (stereo unspecified), the TGI in the assay on 786-0 renal, in the assay with A498 renal, in the assay on A549 NSCLC, in the assay on CAKI-1 renal, in the assay on CCRF-CEM leukemia and in the assay with COLO 205 colon was above 100 µM each time. Besides, the TGI in the assay on DU-145 prostate, in the assay on EKVX NSCLC, in the assay with HCC-2998 colon, in the assay on HCT-15 colon, in the assay with HL-60(TB) leukemia and with MDA-N was above 100 µM in each case. Moreover, the TGI in the assay with NCI-H460 lung, in the assay with SF-539 CNS, with SK-MEL-5 melanoma and in the assay with TK-10 renal was above 100 µM in each case.
For the compound `O=c1oc2ccccc2c(O)c1C(c1ccc(-c2ccccc2)cc1)c1c(O)c2ccccc2oc1=O`, the TGI is 81.3 µM in the assay with 786-0 renal; above 100 µM in the assay with A498 renal; 39.4 µM with CAKI-1 renal; 93.8 µM in the assay with CCRF-CEM leukemia; above 100 µM in the assay on COLO 205 colon; above 100 µM with DU-145 prostate. Besides, the TGI with EKVX NSCLC is above 100 µM; with HCC-2998 colon, 29 µM; in the assay with HCT-15 colon it was 40 µM; with HL-60(TB) leukemia, 51.7 µM; in the assay on MDA-N, 36.1 µM; in the assay with NCI-H460 lung, 33.7 µM. Also, the TGI is 80.9 µM with SK-MEL-5 melanoma and above 100 µM in the assay on TK-10 renal.
On to `CCS(=O)c1c2cc(OC)ccc2nc2ccc(OC)cc12` (stereo unspecified), for which the TGI with 786-0 renal was 6.42 µM; in the assay with A498 renal it was 33.6 µM; in the assay with A549 NSCLC, 51.1 µM; in the assay on CAKI-1 renal, 9.44 µM; with CCRF-CEM leukemia it was above 25.6 µM; in the assay with COLO 205 colon, 15.4 µM. For the same compound, the TGI with DU-145 prostate is 6.49 µM; with EKVX NSCLC it was 32.3 µM; in the assay with HCC-2998 colon, 41.8 µM; in the assay on HCT-15 colon, above 52.5 µM; in the assay with HL-60(TB) leukemia, above 100 µM; in the assay on MDA-N, 16.3 µM. Moreover, the TGI is above 68 µM in the assay with NCI-H460 lung; above 59 µM in the assay on SF-539 CNS; 30.3 µM in the assay on SK-MEL-5 melanoma; 47.5 µM with SK-OV-3 ovarian; 10.3 µM with TK-10 renal.
With `Nc1cccc(OCC2CCCN3CCCCC23)c1` (stereo unspecified), the TGI with 786-0 renal was found to be 29.6 µM; with A498 renal it was 28.2 µM; in the assay with A549 NSCLC it was 45.1 µM; in the assay on CAKI-1 renal it was 35.2 µM; in the assay with CCRF-CEM leukemia, 34.4 µM; in the assay with COLO 205 colon, 36.8 µM. The TGI in the assay on DU-145 prostate is 32.6 µM; in the assay on EKVX NSCLC it was 31.7 µM; in the assay with HCC-2998 colon, 30 µM; in the assay with HCT-15 colon it was 31.5 µM; with HL-60(TB) leukemia, 39.7 µM; in the assay on MDA-N, 30.8 µM. Further, the TGI in the assay with NCI-H460 lung is 36.3 µM; with SF-539 CNS it was 36.5 µM; with SK-MEL-5 melanoma it was 33.8 µM; in the assay on SK-OV-3 ovarian it was above 100 µM; with TK-10 renal it was 34.1 µM.
Turning to `COC(=O)c1cc(O)c(O)c(O)c1-c1c(O)c(O)c(O)c(SC[C@H](NC(=O)OCc2ccccc2)C(=O)OCc2ccccc2)c1C(=O)OC`, the TGI in the assay with 786-0 renal was 49.6 µM; in the assay on A498 renal, above 100 µM; in the assay on A549 NSCLC, 36.3 µM; in the assay on CAKI-1 renal, 35.2 µM; in the assay with CCRF-CEM leukemia, above 100 µM; in the assay on COLO 205 colon it was 48.4 µM. Moreover, the TGI in the assay on DU-145 prostate is above 100 µM; in the assay on EKVX NSCLC, 50.8 µM; in the assay on HCC-2998 colon, above 100 µM; with HCT-15 colon it was above 100 µM; in the assay with HL-60(TB) leukemia, 39.8 µM; with MDA-N, 47.5 µM. The TGI in the assay on NCI-H460 lung is above 100 µM; in the assay on SF-539 CNS, 73 µM; in the assay on SK-OV-3 ovarian it was above 100 µM; in the assay with TK-10 renal it was above 100 µM.
Turning to `O=C1CCC2c3ccccc3NCN12` (stereo unspecified), the TGI in the assay on 786-0 renal, with A498 renal, with A549 NSCLC, in the assay with CAKI-1 renal, in the assay on CCRF-CEM leukemia and in the assay with COLO 205 colon was above 100 µM throughout. Further, the TGI in the assay on DU-145 prostate, in the assay with EKVX NSCLC, in the assay with HCC-2998 colon, in the assay on HCT-15 colon, with HL-60(TB) leukemia and in the assay on MDA-N was above 100 µM throughout. The TGI in the assay on NCI-H460 lung, with SF-539 CNS, in the assay with SK-MEL-5 melanoma, in the assay with SK-OV-3 ovarian and in the assay with TK-10 renal was above 100 µM in each case.
